In PubChem BioAssay AID248 (DTP/NCI, 2004):
Where “and” joins values, the source holds several entries; their conditions need not be identical. Identical values can stand only once. Inconclusive results and toxic doses are left out. Rule as the data show it: active = T/C of 150% or more; inactive = T/C below 125%.

Tested on: L1210 leukemia ip in BDF1 mice, survival T/C
Assay: NCI In Vivo Anticancer Drug Screen. Data for tumor model L1210 Leukemia (intraperitoneal) in B6D2F1 (BDF1) mice
Conditions: endpoint: mean survival time, higher = longer survival
Summary of the method: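 Ratio derived from survival: compound-dosed mice over vehicle-dosed mice, all bearing a transplantable tumor.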

[1] = dose: 100.0 mg/kg/injection, schedule: Q01DX009 (ip), vehicle: saline
[2] = dose: 200.0 mg/kg/injection, schedule: Q01DX009 (ip), vehicle: saline
[3] = dose: 100.0 mg/kg/injection, schedule: Q01DX009 (ip), vehicle: Klucel (hydroxypropylcellulose) (HPC)
[4] = dose: 200.0 mg/kg/injection, schedule: Q01DX009 (ip), vehicle: Klucel (hydroxypropylcellulose) (HPC)
[5] = dose: 400.0 mg/kg/injection, schedule: Q01DX009 (ip), vehicle: Klucel (hydroxypropylcellulose) (HPC)
[6] = dose: 100.0 mg/kg/injection, schedule: Q04DX002 (ip), vehicle: Klucel (hydroxypropylcellulose) (HPC)
[7] = dose: 200.0 mg/kg/injection, schedule: Q04DX002 (ip), vehicle: Klucel (hydroxypropylcellulose) (HPC)
[8] = dose: 400.0 mg/kg/injection, schedule: Q04DX002 (ip), vehicle: Klucel (hydroxypropylcellulose) (HPC)

Measured: T/C

Nc1ccc2c3c(cccc13)C(=O)OC2=O
inactive: dose: 100.0 mg/kg/injection, schedule: Q01DX001 (ip), vehicle: Klucel (hydroxypropylcellulose) (HPC) 91 % of control | [1] 92 % of control | dose: 200.0 mg/kg/injection, schedule: Q01DX001 (ip), vehicle: Klucel (hydroxypropylcellulose) (HPC) 94 % of control | [2] 95 % of control | dose: 400.0 mg/kg/injection, schedule: Q01DX001 (ip), vehicle: Klucel (hydroxypropylcellulose) (HPC) 94 % of control | dose: 400.0 mg/kg/injection, schedule: Q01DX009 (ip), vehicle: saline 90 % of control

Cc1cc(C(=O)O)c(C(=O)O)c(=O)[nH]1
inactive: dose: 75.0 mg/kg/injection, schedule: Q01DX001 (ip), vehicle: other 111 % of control | dose: 150.0 mg/kg/injection, schedule: Q01DX001 (ip), vehicle: other 104 % of control | dose: 300.0 mg/kg/injection, schedule: Q01DX001 (ip), vehicle: other 102 % of control

CCOC(=O)c1c(-c2cc(OC)c(OC)c(OC)c2)csc1NC(=O)c1ccccc1
inactive: dose: 50.0 mg/kg/injection, schedule: Q04DX003 (ip), vehicle: saline with Tween-80 89 % of control | dose: 100.0 mg/kg/injection, schedule: Q04DX003 (ip), vehicle: saline with Tween-80 105 % of control | dose: 200.0 mg/kg/injection, schedule: Q04DX003 (ip), vehicle: saline with Tween-80 90 % of control | dose: 400.0 mg/kg/injection, schedule: Q04DX003 (ip), vehicle: saline with Tween-80 90 % of control

CC[C@](C)(O)C(=O)O[C@H]1C(=O)O[C@@H]2C[C@H]3C(C)=CC(=O)[C@@H](O)[C@]3(C)[C@H]3[C@@]4(O)OC[C@]32[C@@H]1[C@@H](C)[C@H]4O
inactive: dose: 0.2 mg/kg/injection, schedule: Q01DX009 (ip), vehicle: saline 98 % of control | dose: 0.3 mg/kg/injection, schedule: Q01DX009 (ip), vehicle: saline 100 % of control | dose: 0.44 mg/kg/injection, schedule: Q01DX009 (ip), vehicle: saline 92 % of control | dose: 0.66 mg/kg/injection, schedule: Q01DX009 (ip), vehicle: saline 92 % of control | dose: 1.0 mg/kg/injection, schedule: Q01DX009 (ip), vehicle: saline 102 % of control

C[N+]1(C)C2C=CCC1CSC2 (stereo unspecified)
inactive: dose: 15.0 mg/kg/injection, schedule: Q01DX001 (ip), vehicle: saline 110 % of control

CC(C)CNc1ccc(S(=O)(=O)c2ccc(NCC(C)C)c([N+](=O)[O-])c2)cc1[N+](=O)[O-]
inactive: dose: 3.12 mg/kg/injection, schedule: Q01DX009 (ip), vehicle: DMSO 92 % of control | dose: 6.25 mg/kg/injection, schedule: Q01DX009 (ip), vehicle: DMSO 89 % of control | dose: 12.5 mg/kg/injection, schedule: Q01DX009 (ip), vehicle: DMSO 105 % of control | dose: 25.0 mg/kg/injection, schedule: Q01DX005 (ip), vehicle: DMSO 92 % of control | dose: 25.0 mg/kg/injection, schedule: Q01DX009 (ip), vehicle: DMSO 88 % of control | dose: 50.0 mg/kg/injection, schedule: Q01DX005 (ip), vehicle: DMSO 92 % of control | dose: 100.0 mg/kg/injection, schedule: Q01DX005 (ip), vehicle: DMSO 90 % of control | dose: 100.0 mg/kg/injection, schedule: Q04DX002 (ip), vehicle: DMSO 96 % of control | dose: 200.0 mg/kg/injection, schedule: Q04DX002 (ip), vehicle: DMSO 111 % of control | dose: 400.0 mg/kg/injection, schedule: Q04DX002 (ip), vehicle: DMSO 107 % of control

CC(C)(C)C1COP(=S)(c2ccccc2)OC1 (stereo unspecified)
inactive: dose: 100.0 mg/kg/injection, schedule: Q04DX003 (ip), vehicle: Klucel (hydroxypropylcellulose) (HPC) 96 % of control

CN(C)N=Nc1ccc(C(=O)Oc2ccc3c(c2)CCC2C3CCC3(C)C(=O)CCC23)cc1 (stereo unspecified)
inactive: [3] 90 % of control | [4] 92 % of control | [5] 88 % of control

CC(C)NC(=O)C1C2CC3OC(=O)C1C3C2 (stereo unspecified)
inactive: dose: 100.0 mg/kg/injection, schedule: Q04DX003 (ip), vehicle: saline 98 % of control | dose: 200.0 mg/kg/injection, schedule: Q04DX003 (ip), vehicle: saline 98 % of control and 88 % of control | dose: 400.0 mg/kg/injection, schedule: Q04DX003 (ip), vehicle: saline 101 % of control and 95 % of control

S=P(N1CCCCC1)(N1CCCCC1)N1CCCCC1
inactive: [3] 100 % of control | [4] 103 % of control | [5] 100 % of control

O=C(Nc1cccc(C(F)(F)F)c1)OCCOc1ccc(Cl)cc1
inactive: [6] 89 % of control | [7] 96 % of control | [8] 101 % of control

CN(C)CCCNc1n[nH]c2cccc(Cl)c12
inactive: dose: 50.0 mg/kg/injection, schedule: Q01DX009 (ip), vehicle: saline 104 % of control | [1] 96 % of control | [2] 104 % of control

CS/C(N)=N/N
inactive: dose: 12.5 mg/kg/injection, schedule: Q04DX003 (ip), vehicle: saline 100 % of control | dose: 25.0 mg/kg/injection, schedule: Q01DX001 (ip), vehicle: saline 90 % of control | dose: 25.0 mg/kg/injection, schedule: Q04DX003 (ip), vehicle: saline 106 % of control | dose: 50.0 mg/kg/injection, schedule: Q01DX001 (ip), vehicle: saline 101 % of control

CCSc1ccc2c(cc1=O)C(NC(=S)Nc1ccccc1)CCc1cc(OC)c(OC)c(OC)c1-2 (stereo unspecified)
inactive: dose: 100.0 mg/kg/injection, schedule: Q04DX003 (ip), vehicle: carboxymethylcellulose (CMC) 102 % of control | dose: 200.0 mg/kg/injection, schedule: Q04DX003 (ip), vehicle: carboxymethylcellulose (CMC) 107 % of control

CCCCCc1ccccc1
inactive: dose: 200.0 mg/kg/injection, schedule: Q01DX Z (ip), vehicle: carboxymethylcellulose (CMC) 103 % of control | dose: 400.0 mg/kg/injection, schedule: Q01DX Z (ip), vehicle: carboxymethylcellulose (CMC) 108 % of control | dose: 800.0 mg/kg/injection, schedule: Q01DX Z (ip), vehicle: carboxymethylcellulose (CMC) 91 % of control

Cc1nc(-c2ccccc2)no1
inactive: dose: 75.0 mg/kg/injection, schedule: Q01DX009 (ip), vehicle: Klucel (hydroxypropylcellulose) (HPC) 102 % of control | [6] 97 % of control | dose: 150.0 mg/kg/injection, schedule: Q01DX009 (ip), vehicle: Klucel (hydroxypropylcellulose) (HPC) 98 % of control | [7] 102 % of control | dose: 300.0 mg/kg/injection, schedule: Q01DX009 (ip), vehicle: Klucel (hydroxypropylcellulose) (HPC) 101 % of control | [8] 97 % of control

CCC(OC(=O)Nc1ccc(S(=O)(=O)NC2CCCCC2)cc1)c1ccco1 (stereo unspecified)
inactive: dose: 100.0 mg/kg/injection, schedule: Q01DX001 (ip), vehicle: saline 94 % of control | dose: 200.0 mg/kg/injection, schedule: Q01DX001 (ip), vehicle: saline 88 % of control | dose: 400.0 mg/kg/injection, schedule: Q01DX001 (ip), vehicle: saline 91 % of control

Cc1ccc(CC2NC(=O)NC2=O)cc1 (stereo unspecified)
inactive: dose: 25.0 mg/kg/injection, schedule: Q01DX009 (ip), vehicle: saline with Tween-80 102 % of control | dose: 50.0 mg/kg/injection, schedule: Q01DX009 (ip), vehicle: saline with Tween-80 96 % of control | dose: 100.0 mg/kg/injection, schedule: Q01DX009 (ip), vehicle: saline with Tween-80 104 % of control | dose: 200.0 mg/kg/injection, schedule: Q01DX009 (ip), vehicle: saline with Tween-80 96 % of control | dose: 400.0 mg/kg/injection, schedule: Q01DX009 (ip), vehicle: saline with Tween-80 94 % of control

COC(=O)C1CN(S(=O)(=O)c2ccccc2)c2ccccc2N1S(=O)(=O)c1ccccc1 (stereo unspecified)
inactive: dose: 100.0 mg/kg/injection, schedule: Q04DX003 (ip), vehicle: acetone 95 % of control | dose: 200.0 mg/kg/injection, schedule: Q04DX003 (ip), vehicle: acetone 100 % of control | dose: 400.0 mg/kg/injection, schedule: Q04DX003 (ip), vehicle: acetone 94 % of control
